Read-outs that look alike come from different tables or passages of the source.
Target: T1, human recombinant COX2 (hCOX2) (UniProt P35354)
T1 sequence (P35354 1-604): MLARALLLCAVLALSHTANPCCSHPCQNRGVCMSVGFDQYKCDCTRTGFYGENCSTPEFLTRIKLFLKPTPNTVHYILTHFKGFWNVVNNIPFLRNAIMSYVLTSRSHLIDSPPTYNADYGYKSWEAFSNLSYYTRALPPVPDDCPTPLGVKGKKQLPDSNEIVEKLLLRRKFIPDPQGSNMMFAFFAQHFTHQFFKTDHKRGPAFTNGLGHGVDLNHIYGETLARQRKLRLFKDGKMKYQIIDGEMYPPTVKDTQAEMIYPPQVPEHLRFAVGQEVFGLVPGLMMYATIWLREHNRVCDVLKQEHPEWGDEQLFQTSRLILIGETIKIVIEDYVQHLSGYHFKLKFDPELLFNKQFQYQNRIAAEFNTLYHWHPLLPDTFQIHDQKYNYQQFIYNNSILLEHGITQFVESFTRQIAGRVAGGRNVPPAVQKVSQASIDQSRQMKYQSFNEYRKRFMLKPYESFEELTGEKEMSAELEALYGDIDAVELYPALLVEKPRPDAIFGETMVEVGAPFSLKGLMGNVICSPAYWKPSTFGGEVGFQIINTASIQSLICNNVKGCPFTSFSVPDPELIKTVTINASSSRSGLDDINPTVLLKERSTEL
Assay: LCMS-based COX2 enzymatic inhibition assay (PGE2 quantification)
Format: biochemical
Design: COX2 2 minutes pge2/pge2d4 area ratio Avg; other: 2 minutes; readout pge2/pge2d4 area ratio; average; COX2 2 minutes pge2/pge2d4 area ratio Avg; LLE; average LLE; COX2 2 minutes pge2 area (counts) Avg; readout pge2 area (counts); other: 2 min; "ovine COX2 (oCOX2), human recombinant COX2 (hCOX2)"
Conditions: for IC50: average; for COX2 2 minutes pge2/pge2d4 area ratio Avg. LLE / COX2 2 minutes pge2 area (counts) Avg. LLE / COX2 10 minutes pge2 area (counts) Avg. LLE: average LLE
Method: We have adapted a previously reported cyclooxygenase enzymatic assay utilizing LCMS quantification of PGE2 as the product of COX-1 and COX2 catalyzed conversion of arachidonic acid to evaluate the binding properties of newly synthesized ligands [Cao, 2011]. These optimized and miniaturized (384-well plates) LCMS-based COX-1 and COX2 enzymatic assays enabled us to quickly evaluate newly synthesized ligands for COX2 binding affinity and selectivity vs COX-1. Using a shorter ligand-enzyme incubation time in the LCMS assay (2 minutes vs 10 minutes) also permitted us to prioritize ligands with faster binding kinetics. Considering the relatively slow on-rate kinetics of known coxibs, due to their 3-step binding mechanism [Marnett, 2009], we believe that optimizing this critical parameter will be key to the successful development of a COX2 PET tracer. Using these enzymatic assays, we have evaluated>200 newly synthesized ligands against COX2 and >20 ligands against COX-1. Another critical property necessary for a good PET radiotracer is to have low non-specific binding (NSB) to increase the free fraction and maximize the signal to noise ratio. This property can be evaluated using in-vitro protein binding assays, and we have now evaluated>50 newly synthesized ligands in mouse, rat and human plasma protein binding (PPB) assays as well as >15 ligands in a mouse brain protein binding (BPB) assay.
Ovine COX-1 (oCOX-1), ovine COX2 (oCOX2), human recombinant COX2 (hCOX2), arachidonic acid, PGE2, d4-PGD2, and […] (labeled with deuterium atoms at positions 3 and 4) were purchased from Cayman Chemicals (Ann Arbor, Mich.). The cofactors (−)epinephrine and hematin, and the COX inhibitors indomethacin, resveratrol and diclofenac were purchased from Sigma-Aldrich (St. Louis, Mo.). Celecoxib was purchased from 3B PharmaChem International (Wuhan, China). All organic solvents were HPLC grade or better and were purchased from Thermo Fisher (Hanover Park, Ill.). Formic acid was purchased from EMD Chemicals (San Diego, Calif.). Purified water was prepared by using a Millipore Milli-Q purification system (Millipore, Billerica, Mass.). All other chemicals and solvents were ACS reagent grade, unless stated otherwise.
In an Eppendorf tube, 146 μL of 100 mM Tris.HCl (pH 8.0) buffer, 2 μL of 100 μM hematin (co-factor) and 10 μL of 40 mM L-epinephrine (co-factor) were mixed at room temperature. Next, 20 μL of Tris.HCl (pH 8.0) buffer containing 0.2 μg COX2 or 0.1 μg COX-1 (approximately 1 unit of enzyme; 1 unit COX utilizes 1 nmol 02/mg/min at 37° C.) was added, and the solution was incubated at room temperature for 2 min. A 2 μL aliquot of the COX inhibitor in DMSO was added to the enzyme solution and preincubated at 37° C. for 10 min. Negative controls were identical except that 2 μL aliquots of DMSO without inhibitor were used instead.
Each COX reaction was initiated by adding 20 μL of arachidonic acid in Tris.HCl (pH 8.0) buffer to give a final concentration of 5 μM; and the reaction was terminated after 2 min by adding 20 μL of 2.0 M HCl. The surrogate standards d4-PGE2 and d4-PGD2 (10 μL aliquot of 50 ng/mL solution in methanol) were added to correct for errors or degradation during sample handling and for variation in injection volume or instrument response during LC-MS-MS. After 30 min, PGE2, PGD2 and their surrogate standards were extracted from each incubation mixture using 800 μL hexane/ethyl acetate (50:50, v/v). The organic phase was removed, evaporated to dryness, and reconstituted in 100 μL methanol/water (50:50, v/v) for analysis using LC-MS-MS.
The concentration of PGE2 in each sample was measured using LC-MS-MS, and the percent of COX inhibition by each test solution was determined by comparing the amount of PGE2 produced in the experiment with that produced in the negative control incubation. The formation of PGD2 was measured for quality control purposes, since the levels of PGD2 should be proportional to those of PGE2. […]

[1] = read-out: COX2 2 minutes pge2/pge2d4 area ratio Avg. IC50 (microM), 2 minutes, readout pge2/pge2d4 area ratio
[2] = 2 minutes, readout pge2/pge2d4 area ratio
[3] = 2 minutes, readout pge2 area (counts)
[4] = 2 minutes, readout pge2 area (counts), read-out: COX2 2 minutes pge2 area (counts) Avg. IC50
[5] = 2 minutes, readout pge2/pge2d4 area ratio, read-out: COX2 2 minutes pge2/pge2d4 area ratio Avg. IC50
[6] = 10 minutes, readout pge2 area (counts)
[7] = 10 minutes, readout pge2 area (counts), read-out: COX2 10 minutes pge2 area (counts) Avg. IC50

Compound | COX2 2 minutes pge2/pge2d4 area ratio Avg. LLE [2] | COX2 2 minutes pge2 area (counts) Avg. LLE [3] | IC50 [4] [µM] | IC50 [5] [µM] | COX2 10 minutes pge2 area (counts) Avg. LLE [6] | IC50 [7] [µM] | IC50 [1] [µM]
CS(=O)(=O)c1ccc(-c2cncc(N3Cc4ccncc4C3)n2)cc1 [Compound 304] |  |  |  |  |  |  | 5.2
CS(=O)(=O)c1ccc(-c2ccnc(OCc3cccs3)c2)cc1 [Compound 267] | 1.454 | 1.6998 | 2.95 |  |  |  | 5.2
CS(=O)(=O)c1ccc(-c2nc(NCc3cccs3)cnc2C(=O)O)cc1 [Compound 305] |  |  |  |  |  |  | 5.2
CS(=O)(=O)c1ccc(-c2cncc(OCC3CC3)n2)cc1 [Compound 273] | 3.734 | 3.734 |  |  |  |  | 5.2
CS(=O)(=O)c1ccc(-c2cnc3cn(Cc4cccs4)nc3c2)cc1 [Compound 317] |  |  |  |  |  |  | 5.2
CS(=O)(=O)c1ccc(-c2nc(NCc3cccs3)no2)cc1 [Compound 327] |  |  |  |  |  |  | 5.2
CS(=O)(=O)c1ccc(-c2cncc(N3CCCC3)n2)cc1 [Compound 326] |  | 4.034 |  |  | 4.754 | 0.99 | 5.2
CS(=O)(=O)c1ccc(-c2cncc(N3CCCCC3)n2)cc1 [Compound 262] | 3.643 | 3.693 | 4.04 | 4.57 | 3.59 | 5.13 | 
CS(=O)(=O)c1ccc(-c2cccc(C3CC3c3ccoc3)n2)cc1 (single isomer, unassigned) [Compound 177, 2-[2-(furan-3-yl)cyclopropyl]-6-(4-methanesulfonylphenyl)pyridine] | 3.065 | 2.982 | 0.635 | 0.534 |  |  | 
CS(=O)(=O)c1ccc(-c2cncc(NCc3ccc(F)nc3)n2)cc1 [Compound 208] | 4.4967 | 4.501 | 1.31 | 1.34 | 5.151 | 0.357 | 
CS(=O)(=O)c1ccc(-c2cnc(O)c(NCc3cccs3)n2)cc1 [Compound 316] |  | 3.634 |  |  |  |  | 5.2
C[C@H](Nc1cccc(-c2ccc(S(C)(=O)=O)cc2)n1)c1ccoc1 (single isomer, unassigned) [Compound 241] | 2.087 | 1.8776 | 4.36 | 2.96 |  |  | 
CO/N=C(\c1ccc2ccn(-c3ccc(S(C)(=O)=O)cc3)c2n1)c1cccs1 [Compound 191] |  |  | 0.886 | 0.735 |  |  | 

Now from value to compound, other results behind:

COX2 2 minutes pge2/pge2d4 area ratio Avg. LLE [2] | COX2 2 minutes pge2 area (counts) Avg. LLE [3] | IC50 [4] [µM] | IC50 [5] [µM] | COX2 10 minutes pge2 area (counts) Avg. LLE [6] | IC50 [7] [µM] | Compound | IC50 [1] [µM]
3.7158 | 3.9817 | 0.326 | 0.452 | 4.808 | 0.0384 | C[C@@H](Nc1cncc(-c2ccc(S(C)(=O)=O)cc2)n1)c1cccs1 [Compound 173] | 
4.321 | 4.37 | 0.217 | 0.234 | 5.186 | 0.0388 | Cc1ncc(-c2ccc(S(C)(=O)=O)cc2)nc1NCc1cccs1 [Compound 145] | 
4.286 | 4.322 | 0.387 | 0.546 |  |  | COc1cc(S(C)(=O)=O)ccc1-c1cncc(NCc2cccs2)n1 [Compound 179] | 
4.517 | 4.626 | 0.0581 | 0.0757 |  |  | CS(=O)(=O)c1ccc(-c2cnc(F)c(NCc3cccs3)n2)cc1 [Compound 97] | 
 |  | 0.041 | 0.0402 |  |  | CS(=O)(=O)c1ccc(-c2coc3ccc(NCc4ccco4)nc23)cc1 [Compound 68] | 
4.753 | 4.8121 | 2.23 | 2.56 |  |  | Cn1cc(CNc2cncc(-c3ccc(S(C)(=O)=O)cc3)n2)cn1 [Compound 237] | 
2.8514 | 2.964 | 1.17 | 1.41 | 3.939 | 0.112 | CS(=O)(=O)c1ccc(-c2cnc3ncn(Cc4cccs4)c3n2)cc1 [Compound 210] | 
3.623 | 3.623 | 0.572 | 0.61 |  |  | CS(=O)(=O)c1ccc(-c2cccc(NCc3cc[nH]c3)n2)cc1 [Compound 185] | 
 |  | 0.219 | 0.207 |  |  | CS(=O)(=O)c1ccc(-n2nnc3ccc(NCc4cccs4)nc32)cc1 [Compound 139] | 
4.69 | 4.636 | 0.608 | 0.544 | 5.429 | 0.119 | CC(C)CNc1cncc(-c2ccc(S(C)(=O)=O)cc2)n1 [Compound 178] | 
4.9351 | 4.813 | 1.09 | 0.772 |  |  | CS(=O)(=O)c1ccc(-c2cncc(SCc3ccno3)n2)cc1 [Compound 193] | 
4.811 | 4.888 | 0.345 | 0.401 |  |  | CS(=O)(=O)c1ccc(-c2cncc(NC[C@H]3CCCS3)n2)cc1 (single isomer, unassigned) [Compound 162] | 
3.614 | 3.525 | 0.108 | 0.102 |  |  | C[C@@H](Nc1cccc(-c2ccc(S(C)(=O)=O)cc2)n1)c1ccoc1 (single isomer, unassigned) [Compound 112] | 
